Experimental data from patent publication US6413983B1, “Benzopyranyl heterocycle derivatives, process for preparation thereof, and pharmaceutical compositions containing them” (Dongbu Hannong Chemical Co. Ltd., priority 2000, dated 2002).

Key:
[1] = test system: isolated rat aorta constricted with methoxamine; experiment: Vasodilation effects on isolated aorta of rats (methoxamine-constricted rings); conditions: isolated rat aorta constricted with methoxamine (3 μM); 50% relaxation
Description: Male Sprague-Dawly rats (350-450 g, obtained from the Experimental Animal Team of the Korea Research Institute of Chemical Technology) were knocked unconscious by hitting the occipital region, sacrificed by cervical dislocation, and underwent thoracotomy. After being quickly removed, the thoracic aorta was deprived of the adipose tissue and cut into aortic rings of 3 mm width. The aorta was lightly rubbed with cotton club soaked in a modified Krebs Henseleit buffer (Physiological Salt Solution, PSS) to remove the inner epithelial layer therefrom.
Thereafter, 3×10^−6 M methoxamine was applied to induce an intensive constriction in the vascular smooth muscle. When the vasoconstriction induced by the methoxamine was reached and maintained to a maximum, test compounds and controls were cumulatively added to the organ baths in concentrations of 1, 3, 10 and 30 μM so as to examine the vasodilation effect.
The change rate of constriction by the addition of the drugs compared to the maximal constriction induced by methoxamine was calculated to plot a concentration-relaxation response curve.

[2] = test system: cerebral cortical neurons; experiment: Protective activity for neuronal cells against iron-induced damage (LDH release); type: cell-based, rat; conditions: 30 μM compound, 50 uM FeSO4, 24 hours, LDH reduction rate vs control
Description: From the brains of 17-18 day-old rat embryos, cerebral cortical neurons were isolated and then, cultured at 37° C. for 7-9 days in a 5% CO2 incubator. The cortical cell cultures were washed twice with a minimum essential medium (MEM) to reduce the serum concentration to 0.2% and pre-treated for 30 min with 30 μM of each of test compounds. For the experiments, the test compounds were dissolved in DMSO and diluted in a medium. At this time, the final concentration of DMSO was not allowed to exceed 0.2%. For a control group, only vehicle was applied.
After the pre-treatment with test compounds or vehicle, FeSO4 was added to a final concentration of 50 uM, and the cultures were maintained for 24 hours in a CO2 incubator. During incubation, lactate dehydrogenase (LDH) was released into the medium upon neuronal death by the oxidative toxicity of iron. The extent of neuronal damage was assessed by measuring the amount of LDH released into the media. The protective effect of the compounds of interest on neurons was evaluated by calculating the LDH reduction rate of treatment group compared with that of the control group.

isolated rat hearts = experiment: Cardioprotective activity in isolated ischemic heart models of rats (Langendorff, global ischemia/reperfusion); conditions: 10 μM; for LDH (U/g): cumulative reperfusion LDH release; for EDP (MmHg): left ventricular end-diastolic pressure after 30 min reperfusion; for LDVP × HR (%): reperfusion double product as % of pretreatment DP, 30 min global ischemia, 30 min reperfusion; for TTC: time to contracture during global ischemia
Description: Male Sprague-Dawley rats weighing 300-450 g were anesthetized with sodium pentobarbital (100 mg/kg, i.p.). The tail vein was injected with heparin (1,000 U/kg) and then the trachea was intubated. […] A latex balloon filled with solvent (ethanol: water=1:1 (v/v)) and attached to a metal cannula was placed in the left ventricle through pulmonary vein and connected to a Isotec pressure transducer (H.S.E., Germany) for measurement of left ventricular pressure (LVP). […] Then, baseline contractile function, heart rate (HR), and coronary flow (CF) (extracorporeal electromagnetic flow probe, Narco Bio-System, U.S.A.) were measured. Cardiac contractile function was calculated by subtracting LVEDP from LV peak systolic pressure (LVSP), yielding developed pressure (LVDP). Double product (DP), another important parameter for assessing cardiac performance, was calculated by multiplying HR by LVDP. Throughout the experiment, all these parameters were measured, and calculated before and 10 min after pretreatment with each compound and 30 min after the onset of reperfusion with buffer. Data on reperfusion DP were further expressed as the percentage to pretreatment DP.
We then rendered the hearts globally ischemic by completely shutting off the perfusate for 30 min. Severity of ischemia was determined as the time to contracture (TTC, min) during global ischemia in which the first 5 mmHg increase in EDP was observed. Then, the hearts were reperfused and, 30 min later, contractile function (LVDP, DP) and cumulative reperfusion lactate dehydrogenase (LDH) release were measured. LDH was measured as a sensitive index for loss of cell viability with a kit supplied by Boerhinger Mannheim based on the technique of Wroblewski and LaDue [F. Wroblewski and JS.

Row | Molecule | IC50 [1] [µM] | % Protection [2] [%] | LDH (U/g) (isolated rat hearts) | EDP (MmHg) (isolated rat hearts) | LDVP × HR (%) (isolated rat hearts) | TTC (isolated rat hearts) [min] | also measured
1 | CC1(C)Oc2ccc(C#N)cc2C(N2CCCC2=O)C1O (stereo not drawn) [CromaKalim, Cromakalim, reference compound] | 0.067 | – | – | – | – | – | –
2 | CCOC(=O)[C@@H]1Cc2ccccc2N1[C@@H]1c2cc([N+](=O)[O-])ccc2O[C@](C)(C(OC)OC)[C@H]1O [Example 4, 1-[(2S, 3S, 4R)-3,4-dihydro-2-dimethoxymethyl-3-hydroxy-2-methyl-6-nitro-2H-1-benzopyran-4-yl]-(2S)-2,3-dihydro-1H-indole-2-carboxylic acid ethyl ester] | – | – | – | – | – | – | % Protection ([2]; listed as EX. 4): 98%
3 | COC(=O)[C@H]1Cc2ccccc2N1[C@H]1c2cc([N+](=O)[O-])ccc2O[C@](C)(C(OC)OC)[C@@H]1O [Example 5, 1-[(2S, 3R, 4S)-3,4-dihydro-2-dimethoxymethyl-3-hydroxy-2-methyl-6-nitro-2H-1-benzopyran-4-yl]-1H-(2R)-2,3-dihydroindole-2-carboxylic acid methyl ester] | – | 79 | – | – | – | – | –
4 | COC(=O)[C@@H]1Cc2ccccc2N1[C@H]1c2cc([N+](=O)[O-])ccc2O[C@](C)(C(OC)OC)[C@@H]1O [Example 6, 1-[(2S, 3R, 4S)-3,4-dihydro-2-dimethoxymethyl-3-hydroxy-2-methyl-6-nitro-2H-1-benzopyran-4-yl]-1H-(2S)-2,3-dihydroindole-2-carboxylic acid methyl ester] | 15.6 | – | 10.4 | 21 | 62.2 | 24.5 | –
5 | CCOC(=O)[C@@H]1Cc2cc(OC)ccc2N1[C@H]1c2cc([N+](=O)[O-])ccc2O[C@](C)(C(OC)OC)[C@@H]1O [Example 12, 1-[(2S, 3R, 4S)-3,4-dihydro-2-dimethoxymethyl-3-hydroxy-2-methyl-6-nitro-2H-1-benzopyran-4-yl]-(2S)-2,3-dihydro-1H-5-methoxyindole-2-carboxylic acid ethyl ester] | – | 85 | – | – | – | – | –
6 | CCOC(=O)[C@H]1Cc2cc(F)ccc2N1[C@H]1c2cc([N+](=O)[O-])ccc2O[C@](C)(C(OC)OC)[C@@H]1O [Example 15, 1-[(2S, 3R,4S)-3,4-dihydro-2-dimethoxymethyl-3-hydroxy-2-methyl-6-nitro-2H-1-benzopyran-4-yl]-(2R)-2,3-dihydro-1H-5-fluoroindole-2-carboxylic acid ethyl ester] | > 30 | – | 12.0 | 2.7 | 53.3 | 24.8 | –
7 | CCOC(=O)[C@@H]1Cc2cc(F)ccc2N1[C@H]1c2cc([N+](=O)[O-])ccc2O[C@](C)(C(OC)OC)[C@@H]1O [Example 16, 1-[(2S, 3R, 4S)-3,4-dihydro-2-dimethoxymethyl-3-hydroxy-2-methyl-6-nitro-2H-1-benzopyran-4-yl]-(2S)-2,3-dihydro-1H-5-fluoroindole-2-carboxylic acid ethyl ester] | – | 73 | – | – | – | – | –
8 | COC(=O)c1cc2ccccc2n1[C@H]1c2cc([N+](=O)[O-])ccc2O[C@](C)(C(OC)OC)[C@@H]1O [Example 48, 1-[(2S, 3R, 4S)-3,4-dihydro-2-dimethoxymethyl-3-hydroxy-2-methyl-6-nitro-2H-1-benzopyran-4-yl]-1H-indole-2-carboxylic acid methyl ester] | 24 | – | 16.7 | 9.5 | 79.5 | 22.0 | –
9 | COC(=O)[C@H]1CCc2ccccc2N1[C@H]1c2cc([N+](=O)[O-])ccc2O[C@](C)(C(OC)OC)[C@@H]1O [Example 54, 1-[(2S, 3R, 4S)-3,4-dihydro-2-dimethoxymethyl-3-hydroxy-2-methyl-6-nitro-2H-1-benzopyran-4-yl]-(2R)-1,2,3,4-tetrahydro-1H-quinoline-2-carboxylic acid methyl ester] | – | 100 | – | – | – | – | % Protection ([2]; listed as EX. 54): 101%
10 | COC(=O)[C@H]1CCc2ccccc2N1[C@@H]1c2cc([N+](=O)[O-])ccc2O[C@](C)(C(OC)OC)[C@H]1O [Example 56, 1-[(2S, 3S, 4R)-3,4-dihydro-2-dimethoxymethyl-3-hydroxy-2-methyl-6-nitro-2H-1-benzopyran-4-yl]-(2R)-1,2,3,4-tetrahydro-1H-quinoline-2-carboxylic acid methyl ester] | 11.4 | – | 18.8 | 29.0 | 61.0 | 22.2 | –
11 | (2S, 2aR, 10aS)-[(3,4-b)-2a,10a-dihydro-2-dimethoxymethyl-2-methyl-12-nitro-2H-1-benzopyrano]-[(1,2-d)-10H-indolino]-4-oxomorpholine [Example 62] | > 30 | – | 20.5 | 36.5 | 67.2 | 23.1 | –
12 | (2S, 2aS, 10aR)-[(3,4-b)-2a,10a-dihydro-2-dimethoxymethyl-2-methyl-12-nitro-2H-1-benzopyrano]-[(1,2-d)-10H-indolino]-4-oxomorpholine [Example 63] | – | 100 | – | – | – | – | –
